Literature values as cited in patent publication US11116769B2, “Tadalafil free base-containing film dosage form containing polyethylene glycol-based polymer and/or vinyl pyrrolidone-based polymer as dispersion stabilizer” (CTC BIO, INC., priority 2013, dated 2021).

CN1CC(=O)N2[C@H](c3ccc4c(c3)OCO4)c3[nH]c4ccccc4c3C[C@@H]2C1=O [Tadalafil, (6R-trans)-6-(1,3-benzodioxol-5-yl)-2,3,6,7,12,12a-hexahydro-2-methyl-pyrazino[1′,2′:1,6]pyrido[3,4-b]indole-1,4-dione]
solubility in organic solvents (some organic solvents such as methanol, ethanol and acetone): slightly soluble | solubility in water (water): practically insoluble | water solubility (water at 25° C., from U.S. Pat. No. 6,841,167): about 2 μg per 1 milliliter (mL)
